Measured values: patent publication EP0120428A1, “Benzopyran isomers” (BEECHAM GROUP PLC, priority 1983, dated 1984)

How the values were obtained:
[1] = disclosed in European patent publication 9912; cited from earlier work
[2] = system: Spontaneously hypertensive rats; assay: Systolic blood pressure and heart rate by modified tail cuff method in spontaneously hypertensive rats; type: in vivo; conditions: 0.3 mg/kg p.o.; for %Change in Systolic Blood Blood: initial blood pressure 180±7mmHg; for %Change in Heart Rate: initial heart rate 507±5beats/min
Description: Systolic blood pressures were recorded by a modification of the tail cuff method described by I.M. Claxton, M.G. Palfreyman, R.H. Poyser, R.L. Whiting, European Journal of Pharmacology, 37, 179 (1976).
W+W BP recorder, model 8005, was used to display pulses. Prior to all measurments rats were placed in a heated environment (33.5±0.5°C) before transfer to a restraining cage. Each determination of blood pressure was the mean of at least 6 readings. Spontaneously hypertensive rats (ages 12-18 weeks) with systolic blood pressures >170 mmHg were considered hypertensive.

[3] = 5 rats, 2 hours post dose (2 rats had no measurable pulse)
[4] = 5 rats, 4 hours post dose (3 rats had no measurable pulse)
[5] = 5 rats, 6 hours post dose (2 rats had no measurable pulse)
[6] = 24 hours post dose (4 rats only)

Row | SMILES | blood pressure lowering activity [1] | %Change in Systolic Blood Blood ([2]; 5 rats, 1 hour post dose) [%] | %Change in Systolic Blood Blood [2, 3] [%] | %Change in Systolic Blood Blood [2, 4] [%] | %Change in Systolic Blood Blood [2, 5] [%] | %Change in Heart Rate ([2]; 5 rats, 1 hour post dose) [%] | %Change in Heart Rate [2, 3] [%] | %Change in Heart Rate [2, 4] [%] | %Change in Heart Rate [2, 5] [%] | %Change in Systolic Blood Blood [2, 6] [%] | %Change in Heart Rate [2, 6] [%]
1 | CC1(C)Oc2ccc(C#N)cc2[C@@H](N2CCCC2)[C@@H]1O (relative stereo) [6-cyano-3,4-dihydro-2,2-dimethyl-trans 4-pyrrolidino-2H-benzo[b]pyran-3-ol] | has blood pressure lowering activity | – | – | – | – | – | – | – | – | – | –
2 | CC1(C)Oc2ccc(C#N)cc2[C@@H](N2CCCC2=O)[C@@H]1O (relative stereo) [Compound (1) of Example (3S,4R)-isomer, 6-cyano-3,4-dihydro-2,2-dimethyl-trans-4-(2-oxo-1-pyrrolidinyl)-2H-benzo[b]pyran-3-ol] | – | -59 ± 4 | -52 ± 7 | -32 | -28 ± 8 | -2 ± 2 | -6 ± 3 | -15 | -5 ± 1 | -14 ± 7 | -3 ± 2
3 | CC1(C)Oc2ccc(C#N)cc2[C@@H](N2CCCC2)[C@@H]1O (single isomer, unassigned; isomer 6) [(+)-isomer, 6-cyano-3,4-dihydro-2,2-dimethyl-trans 4-pyrrolidino-2H-benzo[b]pyran-3-ol] | greater blood pressure lowering activity than the (-)- isomer | – | – | – | – | – | – | – | – | – | –
